Data from patent publication US8106155B2, “Test kit for determining process for determining antibiotics containing a beta-lactam ring in a biological fluid” (Neogen Corporation, priority 1998, dated 2012).

Assays:
BlaR-CTD receptor [1] = target: T1, BlaR-CTD receptor (Bacillus licheniformis, UniProt P12287); assay: 5-minute test: BlaR-CTD coupled to gold beads, membrane test device, milk; assay type: binding; conditions: test carried out in 5 minutes, 47° C.; positive when 1st band less intense than 2nd band
T1 construct: uses the BlaR-CTD receptor coupled to gold beads
Protocol: (§1) This example illustrates the detection in milk of antibiotics containing a β-lactam ring, which are controlled by the health authorities. The test described in this example uses the BlaR-CTD receptor coupled to gold beads which serve as labelling agents, and uses a support in the form of a test device comprising a solid support to which membranes are attached.
6 samples of fresh milk containing 0; 2; 4; 6; 8 and 10 ppb of cloxacillin, respectively, are prepared. Each of these solutions is then analyzed in the following way.
(§2) A 200 μl aliquot sample of milk and 45.27 μl of solution prepared in Example 1.1.3 are taken and placed in a glass flask. This mixture is incubated for 3 minutes at 47° C. A test device is taken and placed vertically in the glass flask such that the first end of the test device is in contact with the mixture and such that the second end rests on the wall of the glass flask. The mixture is left to migrate on the test device, while incubating the assembly for 2 minutes at 47° C.
(§3) An intensity value ranging from 0 to 10 is attributed to the bands detected, the value 10 being given to the most intense band and the value 0 being given to the least intense band. According to this scale, a value of 6 is assigned to the reference band. The intensity of the signal observed in the first band is inversely proportional to the amount of cloxacillin present in the sample.
(§4) In this example, when the first band has an intesity less than that of the second band, the test is considered as being positive.

BlaR-CTD receptor [2] = target: T1, BlaR-CTD receptor; assay: 9-minute test: BlaR-CTD coupled to gold beads, membrane test device, milk; assay type: binding; conditions: 47° C.; for concentration detected in a sample of milk: test carried out in 9 minutes, positive when 1st band less intense than 2nd band; for Intensity 1st band: 9-minute test, scale 0 to 10, reference band 6
Protocol: as §1
6 samples of fresh milk containing 0; 4; 6; 8; 10 and 12 ppb of cephapirin, respectively, are prepared. Each of these solutions is then analyzed in the following way.
as §2, with “for 7” for “for 3”
as §3, with “cephapirin” for “cloxacillin”
as §4

[3] = target: T2, BlaR-CTD-β-lactamase fusion protein (UniProt P04190+P12287); assay: Example 2: BlaR-CTD-β-lactamase fusion protein with cephalosporin C magnetic beads, milk; assay type: binding, Bacillus licheniformis; conditions: nitrocefine absorbance at 482 nm, 47° C., detection at concentrations below the US standards listed
T2 construct: made in house; host or cells: E. coli
T2 sequence (P12287+P04190 with tags, fused parts or gaps): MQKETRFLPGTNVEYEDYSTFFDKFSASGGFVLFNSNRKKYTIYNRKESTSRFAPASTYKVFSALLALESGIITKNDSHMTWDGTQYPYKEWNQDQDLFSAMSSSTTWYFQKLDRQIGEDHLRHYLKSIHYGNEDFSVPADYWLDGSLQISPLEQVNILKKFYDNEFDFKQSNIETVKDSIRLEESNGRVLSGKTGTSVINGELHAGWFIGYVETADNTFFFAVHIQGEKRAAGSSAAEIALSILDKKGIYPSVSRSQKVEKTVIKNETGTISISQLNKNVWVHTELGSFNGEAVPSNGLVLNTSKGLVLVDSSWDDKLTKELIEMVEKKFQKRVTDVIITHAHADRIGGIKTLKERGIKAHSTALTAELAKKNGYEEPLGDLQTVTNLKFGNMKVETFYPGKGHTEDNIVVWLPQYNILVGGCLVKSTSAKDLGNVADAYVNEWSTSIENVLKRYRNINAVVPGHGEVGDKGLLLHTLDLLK
Description: This example illustrates the detection in milk of the 6 antibiotics containing a β-lactam ring which are controlled by the US authorities. The test described in this example uses the BlaR-CTD receptor in the form of a fusion protein with β-lacatamase and uses a support in the form of magnetic beads.
The BlaR-CTD-β-lactamase fusion protein is obtained by genetic coupling between the BlaR-CTD receptor (B. Joris et al., FEMS Microbiology Letters, 107-114, 1990) and Zn β-lactamase from Bacillus cereus (M. Hussain et al., 1985, J. Bact., 164:1, 223-229, 1985).
BioMag 4100 particles (available from DRG Instrument GmbH, Marburg, Germany, under the reference AM 4100 B) are used, the NH2 ends of which have been activated with glutaraldehyde in the following way: • one volume of initial solution of BioMag 4100 particles is rinsed 4 times with 5 volumes of 0.01M pH 6.0 pyridine buffer. The particles are taken up in 2.5 volumes of glutaraldehyde at 5% in pyridine buffer and are agitated by rotation for 3 hours at room temperature. They are then rinsed 10 times with 2 volumes of 0.01 M pH 7.0 Kpi buffer. The particles are then resuspended in 1 volume of 0.1 M cephalosporin C in Kpi buffer and are agitated by rotation overnight at +4° C. The final rinsing is carried out until the cephalasporin C has been completely removed from the 0.1 M pH 7.0 Kpi buffer. 2.3. Determination of the 6 Antibiotics Penicillin G, Ampicillin, Amoxicillin, Cloxacillin, Cephapirin and Certiofur in Milk. […]
50 μl of solution 1 are placed in the presence of […] of doped milk samples and incubated at 47° C. for 2 minutes. […] The absorbance of the residual solution at 482 nm is then measured relative to the nitrocefine solution.

[4] = system: protein isolated from an antibiotic-sensitive microorganism, such as Bacillus stearothermophilus; conditions: Example 1 of European Patent Application 593 112; cited from earlier work

Row | Structure (SMILES) | concentration detected in a sample of milk (BlaR-CTD receptor [1]) | concentration detected in a sample of milk (BlaR-CTD receptor [2]) | concentration detected in milk [3] | concentration detected [4] | Intensity 1st band (BlaR-CTD receptor [2]; 4 ppb cephapirin in milk) | Intensity 1st band (BlaR-CTD receptor [2]; 6 ppb cephapirin in milk) | Intensity 1st band (BlaR-CTD receptor [2]; 8 ppb cephapirin in milk) | Intensity 1st band (BlaR-CTD receptor [2]; 10 ppb cephapirin in milk) | Intensity 1st band (BlaR-CTD receptor [2]; 12 ppb cephapirin in milk)
1 | CO/N=C(\C(=O)N[C@@H]1C(=O)N2C(C(=O)O)=C(CSC(=O)c3ccco3)CS[C@H]12)c1csc(N)n1 [ceftiofur] | 100 ppb | 80 ppb | < 50 ppb | 5 ppb |  |  |  |  | 
2 | CC(=O)OCC1=C(C(=O)O)N2C(=O)[C@@H](NC(=O)CSc3ccncc3)[C@H]2SC1 [cephapirin] | 16 ppb | 6 ppb | < 20 ppb | 5 ppb | 6 | 5 | 4 | 3 | 3
3 | CC1(C)S[C@@H]2[C@H](NC(=O)Cc3ccccc3)C(=O)N2[C@H]1C(=O)O [penicillin G] | 3 ppb | 3 ppb | < 5 ppb | ~5 ppb |  |  |  |  | 
